Measurements taken from patent publication US5238936A, “Trisubstituted triazines” (Adir et Compagnie, priority 1991, dated 1993).

How the values were obtained:
line DC-3F/AD [1] = experiment: Cytotoxicity (Microculture Tetrazolium Assay): reversal of resistance to actinomycin D, line DC-3F/AD; type: cell-based, Chinese hamster; settings: 4 days
From the text: The pharmacological study of the compounds of the present invention consisted first of all in an evaluation in vitro carried out on resistant cells. The parameter measured is the cytotoxicity of the antitumour drug, quantified in the absence and in the presence of the reversing compound.
The cells are distributed on microplates and exposed to the cytotoxic compounds (actinomycin D for line DC-3F/AD and adriamycin for line KB-Al) at 9 concentrations (2 by 2 series dilutions). The compounds tested for their capacity to reverse MDR are added at the same time as the cytotoxic agent.
The cells are then incubated for 4 days. […] The results are expressed as a reversion factor (RF): PG,29 [formula]

line DC-3F/AD [2] = experiment: Flow cytometry: intracellular accumulation of adriamycin by cells of the line DC-3F/AD; type: cell-based, Chinese hamster; settings: ADR 50 μM, 5 hours
From the text: Also measured was the effect of the compounds on the intracellular concentration of the cytotoxic agent. In effect, the known compounds for reversing MDR act by increasing the intracellular concentration of cytotoxic agent. This effect is the consequence of inhibiting the action of gP 170 which is responsible for the efflux of the drug.
By measuring that fluorescence, it is thus possible to obtain a relative measurement of the intracellular concentration of ADR.
The cells 500×10^3 per ml were exposed simultaneously to ADR at a fixed concentration (50 μM) and to the tested compounds at various concentrations. After 5 hours' incubation, the intracellular accumulation of ADR was evaluated by FCM. […] The analysis of each of the samples was carried out on a total of 10,000 cells at a rate of 1,000 cells per second.
The results were presented in the form of linear histograms of the intracellular ADR fluorescence.
Expression of the results: for each of the histograms the mean fluorescence per channel (MEAN) was determined by the information system of the apparatus. For all experiments:
a negative control (cells without ADR) fixed the autofluorescence threshold.
a positive control (cells with ADR) determined the MEAN value=MN1.
the "test" tubes (cells with ADR and with compound) were used to determine, for each of the compounds and at each of the concentrations, the MEAN values=MN2.
The results are expressed in the form of variations from the mean fluorescence obtained for each of the "test" tubes (MN2) in relation to the mean fluorescence obtained with the positive control (MNl): VAR-MEAN=MN2-MN1. The parameter expressed is thus the increase in ADR fluorescence in the presence of the tested compounds.

Row | SMILES | Reversion factors (cytotoxicity) with the line DC-3F/AD (line DC-3F/AD [1]; 1 μM compound) | Reversion factors (cytotoxicity) with the line DC-3F/AD (line DC-3F/AD [1]; 5 μM compound) | VAR-MEAN (increase in ADR fluorescence), line DC-3F/AD (line DC-3F/AD [2]; 1.0 μM compound) | VAR-MEAN (increase in ADR fluorescence), line DC-3F/AD (line DC-3F/AD [2]; 5.0 μM compound) | VAR-MEAN (increase in ADR fluorescence), line DC-3F/AD (line DC-3F/AD [2]; 10 μM compound) | VAR-MEAN (increase in ADR fluorescence), line DC-3F/AD (line DC-3F/AD [2]; […] compound) | Reversion factors (cytotoxicity) with the line DC-3F/AD (line DC-3F/AD [1]; 0.5 μM compound)
1 | C=CCNc1nc(NCC=C)nc(N2CCC(NCC3c4ccccc4CSc4ccccc43)CC2)n1 (racemic) [Example 26, 2,4-diallylamino-6-{4-[((R,S)-6,11-dihydro-dibenzo[b,e]thiepin-11-yl)methylamino]piperidin-1-yl}-1,3,5-triazine] | 6.8 | 866.6 | 4.3 | 33.5 | 32.6 | 17.8 | –
2 | C=CCNc1nc(NCC=C)nc(N2CCC(NCC3c4ccccc4NC(=O)c4ccccc43)CC2)n1 (racemic) [Example 27, 2,4-diallylamino-6-{4-[((R,S)-6,11-dihydro-dibenzo[b,e]-6-oxoazepin-11-yl)methylamino]piperidin-1-yl}-1,3,5-triazine] | 1.1 | 2.1 | 0.0 | 2.2 | – | 0.0 | –
3 | C=CCNc1nc(NCC=C)nc(N2CCC(NCC3c4ccccc4CS(=O)(=O)c4ccccc43)CC2)n1 (racemic) [Example 32, 2,4-diallylamino-6-{4-[((R,S)-6,11-dihydro-5,5-dioxo-dibenzo[b,e]thiepin-11-yl)methylamino]piperidin-1-yl}-1,3,5-triazine] | 1.3 | 27.4 | 0.0 | 12.4 | – | 1.9 | –
4 | C=CCNc1nc(NCC=C)nc(N2CCN(C3c4ccccc4CCc4ccccc43)CC2)n1 [Example 1, 2,4-Diallylamino-6-{4-(10,11-dihydro-5H-dibenzo[a,d]cyclohepten-5-yl)piperazin-1-yl}-1,3,5-triazine] | 27 | 309 | 8.4 | 16.0 | 19.3 | 4.9 | –
5 | C=CCNc1nc(NCC=C)nc(NCCN2CCN(C3c4ccccc4CCc4ccccc43)CC2)n1 [Example 2, 2,4-Diallylamino-6-{2-[4-(10,11-dihydro-5H-dibenzo[a,d]cyclohepten-5-yl)piperazin-1-yl]ethylamino}-1,3,5-triazine] | 1 | – | 10.1 | 10.2 | 10.5 | 14.7 | 0.8
6 | C=CCNc1nc(NCC=C)nc(N2CCC(NC3c4ccccc4CCc4ccccc43)CC2)n1 [Example 4, 2,4-diallylamino-6-[4-(10,11-dihydro-5H-dibenzo[a,d]cyclohepten-5-ylamino)piperidin-1-yl]-1,3,5-triazine] | 66 | 755 | 16.2 | 25.5 | 28.1 | 21.8 | 21
7 | C=CCNc1nc(NCC=C)nc(NCC(O)CN2CCN(C3c4ccccc4CCc4ccccc43)CC2)n1 (stereo not drawn) [Example 6, 2,4-diallylamino-6-{3-[4-(10,11-dihydro-5H-dibenzo[a,d]cyclohepten-5-yl)piperazin-1-yl]-2-hydroxypropylamino}-1,3,5-triazine] | 1.1 | – | 11.0 | 24.3 | 27.6 | 14.4 | 0.9
8 | C=CCNc1nc(NCC=C)nc(NCC2CCN(C3c4ccccc4CCc4ccccc43)CC2)n1 [Example 7, 2,4-diallylamino-6-{[1-(10,11-dihydro-5H-dibenzo[a,d]cyclohepten-5-yl)piperidin-4-yl]methylamino}-1,3,5-triazine] | 1.1 | 9.7 | 3.4 | 10.1 | 17.4 | 3.9 | 1.2
9 | C=CCNc1nc(NCC=C)nc(NCC2CCN(CC3c4ccccc4CCc4ccccc43)CC2)n1 [Example 8, 2,4-diallylamino-6-{[1-[(10,11-dibenzo[a,d]cyclohepten-5-yl)methyl]piperidin-4-yl]methylamino}-1,3,5-triazine] | 1.6 | 353 | 1.3 | 19.3 | 21.0 | 11.4 | 0.8
10 | C=CCNc1nc(NCC=C)nc(N2CCC(NCC3c4ccccc4Oc4ccccc43)CC2)n1 [Example 9, 2,4-diallylamino-6-[4-(xanthen-9-ylmethylamino)-piperidin-1-yl]-1,3,5-triazine] | 39 | 844 | 13.4 | 19.4 | 25.7 | 18.1 | 4.8
11 | C=CCNc1nc(NCC=C)nc(N2CCC(NCC34CCC(c5ccccc53)c3ccccc34)CC2)n1 [Example 10, 2,4-diallylamino-6-{4-[(9,10-dihydro-9,10-ethanoanthracen-9-yl)methylamino]piperidin-1-yl}-1,3,5-triazine] | 1.9 | 96 | 12.3 | 20.2 | 30.7 | 13.5 | 1
12 | C=CCNc1nc(NCC=C)nc(NCCN2CCC(NC3c4ccccc4CCc4ccccc43)CC2)n1 [Example 12, 2,4-diallylamino-6-{2-[4-(10,11-dihydro-5H-dibenzo[a,d]cyclohepten-5-ylamino)piperidin-1-yl]ethylamino}-1,3,5-triazine] | 0.9 | 64 | 5.4 | 10.4 | 18.3 | 10.3 | 0.9
13 | C=CCNc1nc(NCC=C)nc(N2CCC(NCC3c4ccccc4-c4ccccc43)CC2)n1 [Example 13, 2,4-diallylamino-6-{4-[(fluoren-9-yl)methylamino]piperidin-1-yl}-1,3,5-triazine] | 7.1 | 170 | 8.1 | 19.6 | 23.2 | 12.0 | 2.1
14 | CNc1nc(NC)nc(N2CCC(NCC3c4ccccc4CCc4ccccc43)CC2)n1 [Example 14, 2,4-dimethylamino-6-{4-[(10,11-dihydro-5H-dibenzo[a,d]cyclohepten-5-yl)methylamino]piperidin-1-yl}-1,3,5-triazine] | 7.8 | 187 | 12.3 | 29.4 | 30.6 | 14.5 | 1.3
